In patent US12522601B2, “1,3,4-oxadiazole derivative compounds as histone deacetylase 6 inhibitor, and the pharmaceutical composition comprising the same” (CHONG KUN DANG PHARMACEUTICAL CORP., priority 2020, dated 2026):

Columns and labels:
human recombinant HDAC1 = target: T1, human recombinant HDAC1 (Homo sapiens, UniProt Q13547); experiment: In vitro HDAC enzyme activity inhibition assay, HDAC1 (HDAC Fluorimetric Drug Discovery Kit); type: biochemical; settings: human recombinant HDAC1, Fluor de Lys-SIRT1 substrate 10 μM, 30° C. for 60 minutes
T1 construct: purchased Enzo Life Sciences, Inc. BML-SE456
Procedure: (§1) In order to confirm the selectivity of the compounds represented by Chemical Formula I of the present invention to HDAC6 through HDAC1 and HDAC6 enzyme activity inhibition experiments, a comparison experiment was performed using the material that has already been developed as a control group.
(§2) HDAC enzyme activity was measured using the HDAC Fluorimetric Drug Discovery Kit (Enzo Life Sciences, Inc., BML-AK511, 516). For the HDAC1 enzyme activity test, human recombinant HDAC1 (BML-SE456) was used as an enzyme source and Fluor de Lys®-SIRT1 (BNL-KI177) was used as a substrate. After dispensing 5-fold diluted compounds into a 96-well plate, 0.3 μg of enzyme and 10 μM substrate were added to each well of the plate and allowed to react at 30° C. for 60 minutes. Next, Fluor de Lys® Developer II (BML-KI176) was added and reacted for 30 minutes to complete the reaction, and then the fluorescence values (Ex 360, Em 460) were measured using a multi-plate reader (Flexstation 3, Molecular Device). The HDAC6 enzymes were tested using human recombinant HDAC6 (382180) from Calbiochem Inc., according to the same protocol as the HDAC1 enzyme activity test method. With respect to the final result values, respective IC50 values were calculated using GraphPad Prism 4.0 program, and results thereof were summarized in Table 5 below.

human recombinant HDAC6 = target: T2, human recombinant HDAC6 (Homo sapiens, UniProt Q9UBN7); experiment: In vitro HDAC enzyme activity inhibition assay, HDAC6 (HDAC Fluorimetric Drug Discovery Kit); type: biochemical; settings: for HDAC6 Selectivity (fold): HDAC6 versus HDAC1; for IC50: human recombinant HDAC6, same protocol as the HDAC1 test
T2 construct: purchased Calbiochem Inc. 382180
T2 sequence (Q9UBN7 1-1215): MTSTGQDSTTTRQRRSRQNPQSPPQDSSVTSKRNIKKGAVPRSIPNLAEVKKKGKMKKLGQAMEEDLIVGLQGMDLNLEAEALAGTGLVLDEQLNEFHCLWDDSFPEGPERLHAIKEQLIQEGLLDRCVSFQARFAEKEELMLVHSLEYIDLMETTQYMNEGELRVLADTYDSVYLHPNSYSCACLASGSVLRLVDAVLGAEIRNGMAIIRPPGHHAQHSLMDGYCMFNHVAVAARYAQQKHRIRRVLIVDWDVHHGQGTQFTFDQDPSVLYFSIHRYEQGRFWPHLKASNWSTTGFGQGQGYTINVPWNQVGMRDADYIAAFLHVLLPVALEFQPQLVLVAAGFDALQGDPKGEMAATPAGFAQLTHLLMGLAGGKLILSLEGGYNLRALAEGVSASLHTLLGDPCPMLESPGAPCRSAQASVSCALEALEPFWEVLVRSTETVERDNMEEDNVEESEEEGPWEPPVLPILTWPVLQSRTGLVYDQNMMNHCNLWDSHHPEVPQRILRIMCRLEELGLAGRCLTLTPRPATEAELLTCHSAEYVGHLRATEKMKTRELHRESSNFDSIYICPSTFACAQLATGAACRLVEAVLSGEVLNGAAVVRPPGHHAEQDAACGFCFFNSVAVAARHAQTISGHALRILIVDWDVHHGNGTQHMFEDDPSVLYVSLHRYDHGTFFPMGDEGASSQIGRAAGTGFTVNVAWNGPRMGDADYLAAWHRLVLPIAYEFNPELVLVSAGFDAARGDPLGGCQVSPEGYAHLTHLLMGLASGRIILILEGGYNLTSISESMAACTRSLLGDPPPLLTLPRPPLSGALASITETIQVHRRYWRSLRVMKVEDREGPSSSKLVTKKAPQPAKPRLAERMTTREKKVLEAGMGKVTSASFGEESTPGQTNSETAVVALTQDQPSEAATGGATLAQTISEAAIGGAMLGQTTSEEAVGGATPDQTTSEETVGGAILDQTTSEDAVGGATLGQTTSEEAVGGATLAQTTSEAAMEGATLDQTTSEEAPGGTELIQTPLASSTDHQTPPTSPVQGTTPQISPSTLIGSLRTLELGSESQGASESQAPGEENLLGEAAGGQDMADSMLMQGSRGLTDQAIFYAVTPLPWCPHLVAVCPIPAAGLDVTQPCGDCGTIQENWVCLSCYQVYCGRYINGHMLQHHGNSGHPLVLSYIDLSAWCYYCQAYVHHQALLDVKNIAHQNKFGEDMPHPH
Procedure: as §1, §2

T1 sequence (Q13547 whole entry): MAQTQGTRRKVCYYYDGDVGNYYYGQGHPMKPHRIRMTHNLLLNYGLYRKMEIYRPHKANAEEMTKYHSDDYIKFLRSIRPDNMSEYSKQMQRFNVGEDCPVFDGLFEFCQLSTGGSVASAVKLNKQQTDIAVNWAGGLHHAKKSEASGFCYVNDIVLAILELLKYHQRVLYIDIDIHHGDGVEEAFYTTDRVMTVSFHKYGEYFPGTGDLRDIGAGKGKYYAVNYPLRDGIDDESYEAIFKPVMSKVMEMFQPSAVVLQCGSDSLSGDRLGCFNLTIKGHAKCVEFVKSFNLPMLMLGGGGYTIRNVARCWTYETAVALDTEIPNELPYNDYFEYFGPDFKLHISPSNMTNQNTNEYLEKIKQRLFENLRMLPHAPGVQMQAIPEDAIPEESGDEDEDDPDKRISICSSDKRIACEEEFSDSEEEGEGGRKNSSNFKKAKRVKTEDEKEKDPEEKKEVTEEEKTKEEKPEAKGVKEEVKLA

FC(F)c1nnc(-c2ccn3cc(Cc4ccccc4)nc3c2)o1 [Compound 3009, 2-(2-benzylimidazo[1,2-a]pyridin-7-yl)-5-(difluoromethyl)-1,3,4-oxadiazole]
IC50 (human recombinant HDAC1): > 50000 nM | HDAC6 Selectivity (fold) (human recombinant HDAC6): 631 fold | IC50 (human recombinant HDAC6): 79.2 nM

Fc1cccc(Cc2cn3ccc(-c4nnc(C(F)F)o4)cc3n2)c1 [Compound 3585, 2-(difluoromethyl)-5-(2-(3-fluorobenzyl)imidazo[1,2-a]pyridin-7-yl)-1,3,4-oxadiazole]
IC50 (human recombinant HDAC1): > 50000 nM | HDAC6 Selectivity (fold) (human recombinant HDAC6): 386 fold | IC50 (human recombinant HDAC6): 130 nM

Fc1ccc(Cc2cn3ccc(-c4nnc(C(F)F)o4)cc3n2)cc1 [Compound 3586, 2-(difluoromethyl)-5-(2-(4-fluorobenzyl)imidazo[1,2-a]pyridin-7-yl)-1,3,4-oxadiazole]
IC50 (human recombinant HDAC1): > 50000 nM | HDAC6 Selectivity (fold) (human recombinant HDAC6): 151 fold | IC50 (human recombinant HDAC6): 330 nM

Fc1ccc(Cc2cn3ccc(-c4nnc(C(F)F)o4)cc3n2)cc1F [Compound 3587, 2-(2-(3,4-difluorobenzyl)imidazo[1,2-a]pyridin-7-yl)-5-(difluoromethyl)-1,3,4-oxadiazole]
IC50 (human recombinant HDAC1): > 50000 nM | HDAC6 Selectivity (fold) (human recombinant HDAC6): 150 fold | IC50 (human recombinant HDAC6): 334 nM

Fc1ccc(Cc2cn3ccc(-c4nnc(C(F)F)o4)cc3n2)c(F)c1 [Compound 3588, 2-(2-(2,4-difluorobenzyl)imidazo[1,2-a]pyridin-7-yl)-5-(difluoromethyl)-1,3,4-oxadiazole]
IC50 (human recombinant HDAC1): > 50000 nM | HDAC6 Selectivity (fold) (human recombinant HDAC6): 205 fold | IC50 (human recombinant HDAC6): 244 nM

Cc1ccc(Cc2cn3ccc(-c4nnc(C(F)F)o4)cc3n2)cc1 [Compound 3589, 2-(difluoromethyl)-5-(2-(4-methylbenzyl)imidazo[1,2-a]pyridin-7-yl)-1,3,4-oxadiazole]
IC50 (human recombinant HDAC1): > 50000 nM | HDAC6 Selectivity (fold) (human recombinant HDAC6): 94 fold | IC50 (human recombinant HDAC6): 530 nM

COc1ccc(Cc2cn3ccc(-c4nnc(C(F)F)o4)cc3n2)cc1 [Compound 3590]
IC50 (human recombinant HDAC1): > 50000 nM | HDAC6 Selectivity (fold) (human recombinant HDAC6): 116 fold | IC50 (human recombinant HDAC6): 432 nM

FC(F)c1nnc(-c2ccn3cc(Cc4ccc(C(F)(F)F)cc4)nc3c2)o1 [Compound 3591]
IC50 (human recombinant HDAC1): > 50000 nM | HDAC6 Selectivity (fold) (human recombinant HDAC6): 47 fold | IC50 (human recombinant HDAC6): 1060 nM

CC(=O)c1ccc(Cc2cn3ccc(-c4nnc(C(F)F)o4)cc3n2)cc1 [Compound 3592, 1-(4-((7-(5-(difluoromethyl)-1,3,4-oxadiazol-2-yl)imidazo[1,2-a]pyridin-2-yl)methyl)phenyl)ethan-1-one]
IC50 (human recombinant HDAC1): > 50000 nM | HDAC6 Selectivity (fold) (human recombinant HDAC6): 109 fold | IC50 (human recombinant HDAC6): 457 nM

FC(F)c1nnc(-c2ccn3cc(Cc4ccc(Cl)cc4)nc3c2)o1 [Compound 3593, 2-(2-(4-chlorobenzyl)imidazo[1,2-a]pyridin-7-yl)-5-(difluoromethyl)-1,3,4-oxadiazole]
IC50 (human recombinant HDAC1): > 50000 nM | HDAC6 Selectivity (fold) (human recombinant HDAC6): 191 fold | IC50 (human recombinant HDAC6): 261 nM

CC(C)c1cccc(Cc2cn3ccc(-c4nnc(C(F)F)o4)cc3n2)c1 [Compound 3594, 2-(difluoromethyl)-5-(2-(3-isopropylbenzyl)imidazo[1,2-a]pyridin-7-yl)-1,3,4-oxadiazole]
IC50 (human recombinant HDAC1): > 50000 nM | HDAC6 Selectivity (fold) (human recombinant HDAC6): 89 fold | IC50 (human recombinant HDAC6): 564 nM

CS(=O)(=O)c1ccc(Cc2cn3ccc(-c4nnc(C(F)F)o4)cc3n2)cc1 [Compound 3595, 2-(difluoromethyl)-5-(2-(4-(methylsulfonyl)benzyl)imidazo[1,2-a]pyridin-7-yl)-1,3,4-oxadiazole]
IC50 (human recombinant HDAC1): > 50000 nM | HDAC6 Selectivity (fold) (human recombinant HDAC6): 112 fold | IC50 (human recombinant HDAC6): 444 nM

FC(F)c1nnc(-c2ccn3cc(Cc4ccc5c(c4)OCO5)nc3c2)o1 [Compound 3596, 2-(2-(benzo[d][1,3]dioxol-5-ylmethyl)imidazo[1,2-a]pyridin-7-yl)-5-(difluoromethyl)-1,3,4-oxadiazole]
IC50 (human recombinant HDAC1): > 50000 nM | HDAC6 Selectivity (fold) (human recombinant HDAC6): 160 fold | IC50 (human recombinant HDAC6): 313 nM

FC(F)c1nnc(-c2ccn3cc(CNc4ccccc4)nc3c2)o1 [Compound 3668, N-((7-(5-(difluoromethyl)-1,3,4-oxadiazol-2-yl)imidazo[1,2-a]pyridin-2-yl)methyl)aniline]
IC50 (human recombinant HDAC1): > 50000 nM | HDAC6 Selectivity (fold) (human recombinant HDAC6): 299 fold | IC50 (human recombinant HDAC6): 167 nM

CC(=O)c1cccc(NCc2cn3ccc(-c4nnc(C(F)F)o4)cc3n2)c1 [Compound 3669]
IC50 (human recombinant HDAC1): > 50000 nM | HDAC6 Selectivity (fold) (human recombinant HDAC6): 426 fold | IC50 (human recombinant HDAC6): 117 nM

Fc1cccc(NCc2cn3ccc(-c4nnc(C(F)F)o4)cc3n2)c1 [Compound 3670, N-((7-(5-(difluoromethyl)-1,3,4-oxadiazol-2-yl)imidazo[1,2-a]pyridin-2-yl)methyl)-3-fluoroaniline]
IC50 (human recombinant HDAC1): > 50000 nM | HDAC6 Selectivity (fold) (human recombinant HDAC6): 226 fold | IC50 (human recombinant HDAC6): 221 nM

Fc1ccc(NCc2cn3ccc(-c4nnc(C(F)F)o4)cc3n2)cc1F [Compound 3671, N-((7-(5-(difluoromethyl)-1,3,4-oxadiazol-2-yl)imidazo[1,2-a]pyridin-2-yl)methyl)-3,4-difluoroaniline]
IC50 (human recombinant HDAC1): > 50000 nM | HDAC6 Selectivity (fold) (human recombinant HDAC6): 318 fold | IC50 (human recombinant HDAC6): 157 nM

Fc1ccc(NCc2cn3ccc(-c4nnc(C(F)F)o4)cc3n2)cc1Cl [Compound 3672, 3-chloro-N-((7-(5-(difluoromethyl)-1,3,4-oxadiazol-2-yl)imidazo[1,2-a]pyridin-2-yl)methyl)-4-fluoroaniline]
IC50 (human recombinant HDAC1): > 50000 nM | HDAC6 Selectivity (fold) (human recombinant HDAC6): 464 fold | IC50 (human recombinant HDAC6): 108 nM

FC(F)c1nnc(-c2ccn3cc(CNc4ccc(C(F)(F)F)cc4)nc3c2)o1 [Compound 3673, N-((7-(5-(difluoromethyl)-1,3,4-oxadiazol-2-yl)imidazo[1,2-a]pyridin-2-yl)methyl)-4-(trifluoromethyl)aniline]
IC50 (human recombinant HDAC1): > 50000 nM | HDAC6 Selectivity (fold) (human recombinant HDAC6): 125 fold | IC50 (human recombinant HDAC6): 400 nM

CS(=O)(=O)c1ccc(NCc2cn3ccc(-c4nnc(C(F)F)o4)cc3n2)cc1 [Compound 3674, N-((7-(5-(difluoromethyl)-1,3,4-oxadiazol-2-yl)imidazo[1,2-a]pyridin-2-yl)methyl)-4-(methylsulfonyl)aniline]
IC50 (human recombinant HDAC1): > 50000 nM | HDAC6 Selectivity (fold) (human recombinant HDAC6): 128 fold | IC50 (human recombinant HDAC6): 391 nM

FC(F)c1nnc(-c2ccn3cc(CNc4cccnc4)nc3c2)o1 [Compound 3675, N-((7-(5-(difluoromethyl)-1,3,4-oxadiazol-2-yl)imidazo[1,2-a]pyridin-2-yl)methyl)pyridin-3-amine]
IC50 (human recombinant HDAC1): > 50000 nM | HDAC6 Selectivity (fold) (human recombinant HDAC6): 401 fold | IC50 (human recombinant HDAC6): 125 nM

Fc1ccc(NCc2cn3ccc(-c4nnc(C(F)F)o4)cc3n2)cn1 [Compound 3676, N-((7-(5-(difluoromethyl)-1,3,4-oxadiazol-2-yl)imidazo[1,2-a]pyridin-2-yl)methyl)-6-fluoropyridin-3-amine]
IC50 (human recombinant HDAC1): > 50000 nM | HDAC6 Selectivity (fold) (human recombinant HDAC6): 354 fold | IC50 (human recombinant HDAC6): 141 nM

FC(F)c1nnc(-c2ccn3cc(CNC45CC6CC(CC(C6)C4)C5)nc3c2)o1 [Compound 3677, (3s,5s,7s)-N-((7-(5-(difluoromethyl)-1,3,4-oxadiazol-2-yl)imidazo[1,2-a]pyridin-2-yl)methyl)adamantane-1-amine]
IC50 (human recombinant HDAC1): > 50000 nM | HDAC6 Selectivity (fold) (human recombinant HDAC6): 196 fold | IC50 (human recombinant HDAC6): 255 nM
